Data: ChEMBL document CHEMBL5505970 (J Med Chem, 2024)
The source made the active and inactive calls. The rule behind the calls is not given here.

Legend:
[1] = Oral bioavailability in Sprague-Dawley rat at 2.5 to 5 mg/kg formulated as a solution in 5% NMP:95% (10% VitE TPGS in water) measured for 24 hrs by reverse phase liquid chromatography coupled to mass spectrometry; type: ADME, organism-based; details: in vivo, dose 2.5-5 mg/kg
[2] = Clearance in Sprague-Dawley rat at 1 mg/kg, iv formulated as a solution in 10% PG:18% PEG400 in water or 5% NMP:95% (10% VitE TPGS in water) measured for 24 hrs by reverse phase liquid chromatography coupled to mass spectrometry; type: ADME, organism-based; details: in vivo
[3] = Clearance in rat liver microsomes at 1 uM in presence of NADPH by ESI/LC-MS/MS analysis; type: ADME, Microsome; details: read-out: CLH
[4] = Clearance in rat hepatocytes at 1 uM measured per million cells by ESI/LC-MS/MS analysis; type: ADME, cell-based, Hepatocyte; details: read-out: CLH
[5] = Clearance in dog liver microsomes at 1 uM in presence of NADPH by ESI/LC-MS/MS analysis; type: ADME, Canis lupus familiaris, Microsome; details: read-out: CLH
[6] = Clearance in dog hepatocytes at 1 uM measured per million cells by ESI/LC-MS/MS analysis; type: ADME, cell-based, Canis lupus familiaris, Hepatocyte; details: read-out: CLH
[7] = Clearance in monkey liver microsomes at 1 uM in presence of NADPH by ESI/LC-MS/MS analysis; type: ADME, Macaca mulatta, Microsome; details: rhesus monkey, read-out: CLH
[8] = Clearance in monkey hepatocytes at 1 uM in presence of NADPH by ESI/LC-MS/MS analysis; type: ADME, cell-based, Macaca mulatta, Hepatocyte; details: rhesus monkey
[9] = Oral bioavailability in CD-1 mouse at 20 mg/kg formulated as suspension in 0.5% methocel and 0.02% SLS in 50 mM citrate buffer measured for 24 hrs by reverse phase liquid chromatography coupled to mass spectrometry; type: ADME, organism-based; details: in vivo
[10] = Oral bioavailability in Beagle dog at 5 mg/kg formulated as suspension in 0.5% methocel and 0.02% SLS in 50 mM citrate buffer measured for 24 hrs by reverse phase liquid chromatography coupled to mass spectrometry; type: ADME, organism-based, Canis lupus familiaris; details: in vivo
[11] = Oral bioavailability in cynomolgus monkey at 1 mg/kg formulated as suspension in 10% propylene glycol:18% PEG400 in water measured for 24 hrs by reverse phase liquid chromatography coupled to mass spectrometry; type: ADME, organism-based, Macaca fascicularis; details: in vivo
[12] = molecular target: Serine/threonine-protein kinase ATR (Homo sapiens, UniProt Q13535); test: Inhibition of ATR in gemcitabine-stimulated human LoVo cells assessed as decrease in CHK1 phosphorylation at Ser345 residue; type: cell-based; details: lovo
[13] = Toxicity in BALB/c mouse assessed as reduction in bone marrow cell viability at 10 mg/kg, po qd for 3 days by trypan blue exclusion assay; type: organism-based; details: in vivo, 72 h, time 3 day
[14] = Toxicity in BALB/c mouse assessed as reduction in total viable cell counts in femur at 10 mg/kg, po qd for 3 days; type: organism-based; details: in vivo, 72 h, time 3 day
[15] = Toxicity in BALB/c mouse assessed as depletion of erythroid lineage by measuring increase in myeloid to erythroid ratio in bone marrow at 10 mg/kg, po qd for 3 days; type: organism-based; details: in vivo, 72 h, time 3 day
[16] = Toxicity in BALB/c mouse assessed as early stage erythroblasts in bone marrow at 10 mg/kg, po qd for 3 days and measured at 1 day after treatment discontinuation by flow cytometry; type: organism-based; details: in vivo, 72 h, time 3 day
[17] = Toxicity in BALB/c mouse assessed as early stage erythroblasts in bone marrow at 10 mg/kg, po qd for 3 days and measured at 2 days after treatment discontinuation by flow cytometry; type: organism-based; details: in vivo, 72 h, time 3 day
[18] = Toxicity in BALB/c mouse assessed as late stage erythroblasts in bone marrow at 10 mg/kg, po qd for 3 days and measured at 4 days after treatment discontinuation by flow cytometry; type: organism-based; details: in vivo, 72 h, time 3 day
[19] = Toxicity in BALB/c mouse assessed as decrease in proportion of reticulocytes in bone marrow at 10 mg/kg, po qd for 3 days; type: organism-based; details: in vivo, 72 h, time 3 day
[20] = Toxicity in NOD-SCID mouse xenografted with human Granta-519 cells assessed as circulating reticulocytes at 30 mg/kg, po qd for 3 days and 4 days off treatment and measured on day 14; type: organism-based; details: in vivo, 72 h, time 3 day
[21] = Toxicity in NOD-SCID mouse xenografted with human Granta-519 cells assessed as early stage erythroblasts at 30 mg/kg, po qd for 3 days and measured at 2 days after treatment discontinuation by flow cytometry; type: organism-based; details: in vivo, 72 h, time 3 day
[22] = Clearance in Beagle dog at 0.5 mg/kg, iv formulated as a solution in 10% PG:18% PEG400 in water or 5% NMP:95% (10% VitE TPGS in water) measured for 24 hrs by reverse phase liquid chromatography coupled to mass spectrometry; type: ADME, organism-based, Canis lupus familiaris; details: in vivo
Granta-519 = test: Antitumor activity against human Granta-519 cells xenografted in NOD-SCID mouse assessed as reduction in tumor volume at 5 mg/kg, po qd for 3 days co-administered with PARP inhibitor, niraparib; type: functional, organism-based; details: time 3.0 day
[23] = Toxicity in NOD-SCID mouse xenografted with human Granta-519 cells assessed as reduction in late stage erythroblasts in bone marrow at 10 mg/kg, po qd for 1 day co-administered with PARP inhibitor, niraparib by flow cytometry; type: organism-based; details: in vivo, 24 h
[24] = Toxicity in NOD-SCID mouse xenografted with human Granta-519 cells assessed as early stage erythroblasts in bone marrow at 10 mg/kg, po qd for 3 days co-administered with PARP inhibitor, niraparib and measured at 2 days after treatment cessation by flow cytometry; type: organism-based; details: in vivo, 72 h, time 3 day
[25] = Toxicity in NOD-SCID mouse xenografted with human Granta-519 cells assessed as late stage erythroblasts in bone marrow at 10 mg/kg, po qd for 3 days co-administered with PARP inhibitor, niraparib and measured at 2 days after treatment cessation by flow cytometry; type: organism-based; details: in vivo, 72 h, time 3 day
[26] = Toxicity in NOD-SCID mouse xenografted with human Granta-519 cells assessed as late stage erythroblasts in bone marrow at 10 mg/kg, po qd for 3 days and measured at 2 days after treatment cessation by flow cytometry; type: organism-based; details: in vivo, 72 h, time 3 day
[27] = Toxicity in NOD-SCID mouse xenografted with human Granta-519 cells assessed as early stage erythroblasts in bone marrow at 10 mg/kg, po qd for 3 days and measured at 4 days after treatment cessation by flow cytometry; type: organism-based; details: in vivo, 72 h, time 3 day
[28] = Toxicity in NOD-SCID mouse xenografted with human Granta-519 cells assessed as late stage erythroblasts in bone marrow at 10 mg/kg, po qd for 3 days and measured at 4 days after treatment cessation by flow cytometry; type: organism-based; details: in vivo, 72 h, time 3 day
[29] = Toxicity in NOD-SCID mouse xenografted with human Granta-519 cells assessed as early stage erythroblasts in bone marrow at 10 mg/kg, po qd for 3 days co-administered with PARP inhibitor, niraparib and measured at 4 days after treatment cessation by flow cytometry; type: organism-based; details: in vivo, 72 h, time 3 day
[30] = Toxicity in NOD-SCID mouse xenografted with human Granta-519 cells assessed as late stage erythroblasts in bone marrow at 10 mg/kg, po qd for 3 days co-administered with PARP inhibitor, niraparib and measured at 4 days after treatment cessation by flow cytometry; type: organism-based; details: in vivo, 72 h, time 3 day
[31] = Toxicity in NOD-SCID mouse xenografted with human Granta-519 cells assessed as red blood cells count at 5 mg/kg, po qd for 3 days and 4 days off intermittent dosing for 3 cycles co-administered with PARP inhibitor, niraparib from day 3 to day 6 in each cycle and measured on day 21; type: organism-based; details: in vivo, 504 h, time 21 day

Serine/threonine-protein kinase ATR, sequence (Q13535 whole entry): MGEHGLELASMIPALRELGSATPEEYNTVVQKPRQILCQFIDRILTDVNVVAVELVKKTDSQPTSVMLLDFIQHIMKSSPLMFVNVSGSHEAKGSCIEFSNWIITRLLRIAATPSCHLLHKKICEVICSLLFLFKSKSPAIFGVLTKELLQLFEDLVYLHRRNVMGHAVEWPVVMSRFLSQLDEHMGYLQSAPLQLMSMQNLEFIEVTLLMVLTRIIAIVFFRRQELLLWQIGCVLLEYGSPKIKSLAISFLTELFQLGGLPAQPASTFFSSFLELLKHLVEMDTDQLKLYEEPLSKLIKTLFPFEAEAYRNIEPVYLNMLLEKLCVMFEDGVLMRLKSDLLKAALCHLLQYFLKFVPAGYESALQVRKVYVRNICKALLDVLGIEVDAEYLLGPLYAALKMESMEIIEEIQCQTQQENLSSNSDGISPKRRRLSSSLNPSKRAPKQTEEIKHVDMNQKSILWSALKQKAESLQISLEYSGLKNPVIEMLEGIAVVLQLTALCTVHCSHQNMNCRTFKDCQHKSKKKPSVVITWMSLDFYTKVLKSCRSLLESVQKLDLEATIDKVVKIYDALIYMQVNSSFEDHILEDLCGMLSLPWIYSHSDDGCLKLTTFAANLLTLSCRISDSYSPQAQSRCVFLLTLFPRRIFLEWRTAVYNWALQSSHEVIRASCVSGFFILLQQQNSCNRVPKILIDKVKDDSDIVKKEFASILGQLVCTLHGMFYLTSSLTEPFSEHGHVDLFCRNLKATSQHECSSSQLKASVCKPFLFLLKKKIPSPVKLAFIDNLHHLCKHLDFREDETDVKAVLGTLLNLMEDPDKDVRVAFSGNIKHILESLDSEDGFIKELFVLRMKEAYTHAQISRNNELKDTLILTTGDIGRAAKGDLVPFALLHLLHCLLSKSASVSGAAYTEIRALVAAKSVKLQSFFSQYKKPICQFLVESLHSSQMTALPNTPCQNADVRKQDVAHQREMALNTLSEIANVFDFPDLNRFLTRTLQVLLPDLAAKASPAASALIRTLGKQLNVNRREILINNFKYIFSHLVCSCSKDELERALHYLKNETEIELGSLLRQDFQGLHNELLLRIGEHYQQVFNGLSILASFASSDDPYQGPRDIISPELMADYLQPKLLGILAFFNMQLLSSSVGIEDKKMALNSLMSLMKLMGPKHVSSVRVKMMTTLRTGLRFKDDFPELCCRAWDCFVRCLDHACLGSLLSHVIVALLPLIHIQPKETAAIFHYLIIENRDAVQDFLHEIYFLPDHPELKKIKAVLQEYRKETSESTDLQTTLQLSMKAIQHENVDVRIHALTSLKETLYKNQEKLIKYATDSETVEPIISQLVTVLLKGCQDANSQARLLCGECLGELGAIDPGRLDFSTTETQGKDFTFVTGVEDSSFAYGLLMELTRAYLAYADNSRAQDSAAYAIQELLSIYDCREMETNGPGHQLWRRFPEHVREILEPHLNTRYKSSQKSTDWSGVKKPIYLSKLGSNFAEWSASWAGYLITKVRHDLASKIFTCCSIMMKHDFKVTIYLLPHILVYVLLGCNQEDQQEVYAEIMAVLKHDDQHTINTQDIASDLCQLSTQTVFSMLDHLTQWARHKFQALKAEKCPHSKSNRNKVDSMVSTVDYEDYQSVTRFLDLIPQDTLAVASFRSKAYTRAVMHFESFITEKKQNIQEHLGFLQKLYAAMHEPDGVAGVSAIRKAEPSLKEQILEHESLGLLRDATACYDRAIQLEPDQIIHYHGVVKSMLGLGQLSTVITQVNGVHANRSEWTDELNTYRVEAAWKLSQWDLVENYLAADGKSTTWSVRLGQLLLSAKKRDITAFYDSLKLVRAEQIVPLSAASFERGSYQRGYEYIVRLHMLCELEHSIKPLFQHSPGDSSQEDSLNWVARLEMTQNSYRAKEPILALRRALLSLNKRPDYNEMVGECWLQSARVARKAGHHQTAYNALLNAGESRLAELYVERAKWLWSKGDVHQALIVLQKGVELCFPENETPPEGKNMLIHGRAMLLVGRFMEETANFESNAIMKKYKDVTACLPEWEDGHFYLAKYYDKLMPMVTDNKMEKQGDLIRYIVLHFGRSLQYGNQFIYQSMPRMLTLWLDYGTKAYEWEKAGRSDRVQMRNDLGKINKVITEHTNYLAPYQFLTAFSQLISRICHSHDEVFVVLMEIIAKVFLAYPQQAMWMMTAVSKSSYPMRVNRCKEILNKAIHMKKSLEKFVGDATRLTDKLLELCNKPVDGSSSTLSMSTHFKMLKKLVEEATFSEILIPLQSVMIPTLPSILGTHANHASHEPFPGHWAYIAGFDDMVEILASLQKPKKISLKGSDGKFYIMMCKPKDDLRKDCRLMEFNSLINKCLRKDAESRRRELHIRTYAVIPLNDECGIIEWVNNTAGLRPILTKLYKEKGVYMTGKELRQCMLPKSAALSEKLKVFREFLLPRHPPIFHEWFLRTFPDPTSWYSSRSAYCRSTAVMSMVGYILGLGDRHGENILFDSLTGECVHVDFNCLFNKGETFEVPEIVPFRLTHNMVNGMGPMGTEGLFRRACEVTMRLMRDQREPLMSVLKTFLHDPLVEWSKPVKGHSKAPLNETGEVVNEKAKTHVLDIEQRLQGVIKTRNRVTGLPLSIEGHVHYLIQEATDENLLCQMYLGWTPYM

bioavailability [1]: 66% | clearance [2]: 22 mL/min/kg | microsomal CLint at 1 µM [3]: 97 µL/min/mg | hepatocyte CLint at 1 µM [4]: 17 µL/min/1e6 cells | microsomal CLint at 1 µM [5]: < 11.6 µL/min/mg | hepatocyte CLint at 1 µM [6]: < 1 µL/min/1e6 cells | microsomal CLint at 1 µM [7]: 26 µL/min/mg | CLH [8]: 3.6 µL/min | bioavailability [9]: 72% | bioavailability [10]: 113% | bioavailability [11]: 56% | IC50 [12]: 0.33 nM | clearance [22]: 10.1 mL/min/kg
SMILES: C[C@@H]1COCCN1c1cc([C@]2(O)C[C@H]3CC[C@@H](C2)O3)c2cnn(-c3cc[nH]n3)c2n1 [CAMONSERTIB]
Activity [13]: Toxic | Activity [14]: Toxic | Activity [15]: Toxic | Activity [16]: Non-Toxic | Activity [17]: Non-Toxic | Activity [18]: Non-Toxic | Activity [19]: Toxic | Activity [20]: Non-Toxic | Activity [21]: Non-Toxic | Activity (Granta-519): Active | Activity [23]: Toxic | Activity [24]: Non-Toxic | Activity [25]: Non-Toxic | Activity [26]: Non-Toxic | Activity [27]: Non-Toxic | Activity [28]: Non-Toxic | Activity [29]: Non-Toxic | Activity [30]: Non-Toxic | Activity [31]: Non-Toxic
